Data taken from ChEMBL document CHEMBL5625161, “Pharmacological activity and mechanism of pyrazines” (Eur J Med Chem, 2023).
≈ marks a conversion by molar mass, not a printed value.

Legend:
HT-29 = assay: Antiproliferative activity against human HT-29 cells assessed as reduction in cell viability incubated for 24 hrs by MTT assay; format: functional, cell-based; conditions: HT-29, 24 h
HeLa = assay: Antiproliferative activity against human HeLa cells assessed as reduction in cell viability incubated for 24 hrs by MTT assay; format: functional, cell-based
PC-3 = assay: Antiproliferative activity against human PC-3 cells assessed as reduction in cell viability incubated for 24 hrs by MTT assay; format: functional, cell-based; conditions: PC-3, 24 h
FaDu = assay: Antiproliferative activity against human FaDu cells assessed as inhibition of cell growth incubated for 72 hrs by 3H-thymidine incorporation assay; format: functional, cell-based
A-375 = assay: Cytotoxicity against human A-375 cells assessed as reduction in cell growth measured after 24 hrs by MTT assay; format: functional, cell-based; conditions: A-375, 24 h
A2780 = assay: Antiproliferative activity against human A2780 cells assessed as reduction in cell growth incubated for 72 hrs by MTT assay; format: functional, cell-based; conditions: A2780, 72 h
Coagulation factor X = Coagulation factor X (Homo sapiens, UniProt P00742); assay: Inhibition of human factor Xa
MCF7 [1] = assay: Antiproliferative activity against human MCF7 cells assessed as inhibition of cell growth at 10 uM incubated for 48 hrs by SRB assay relative to control; format: functional; set-up: scale not given: the % may be the effect or the level left
A549 = assay: Antiproliferative activity against human A549 cells assessed as reduction in cell viability incubated for 48 hrs by SRB assay; format: functional, cell-based; conditions: A549, 48 h
H322 = assay: Antiproliferative activity against human H322 cells assessed as reduction in cell viability incubated for 48 hrs by SRB assay; format: functional, cell-based; conditions: NCI-H322, 48 h
HepG2 = assay: Cytotoxicity against human HepG2 cells assessed as reduction in cell viability incubated for 72 hrs by MTT assay; format: functional, cell-based; conditions: HepG2, 72 h
[2] = molecular target: Telomerase reverse transcriptase (Homo sapiens, UniProt O14746); assay: Inhibition of telomerase (unknown origin)
Histone deacetylase 1 = Histone deacetylase 1 (Homo sapiens, UniProt Q13547); assay: Inhibition of human recombinant HDAC1
Histone deacetylase 2 = Histone deacetylase 2 (Homo sapiens, UniProt Q92769); assay: Inhibition of human recombinant HDAC2
Histone deacetylase 3 = Histone deacetylase 3 (Homo sapiens, UniProt O15379); assay: Inhibition of human recombinant HDAC3
[3] = molecular target: Amine oxidase [flavin-containing] B (Homo sapiens, UniProt P27338); assay: Inhibition of human recombinant MAO-B expressed in insect cells incubated for 15 mins by Amplex red and horseradish peroxidase based fluorescence assay; set-up: species or system Insect cell
SW 1116 = assay: Antiproliferative activity against human SW 1116 cells assessed as reduction in cell growth incubated for 48 hrs by MTT assay; format: functional, cell-based; conditions: SW 1116, 48 h
Rhizoctonia solani = assay: Antifungal activity Rhizoctonia solani assessed as fungal growth inhibition measured after 4 to 8 days; format: functional, organism-based
Acetylcholinesterase = Acetylcholinesterase (Homo sapiens, UniProt P22303); assay: Inhibition of AChE (unknown origin)
Cholinesterase = Cholinesterase (Homo sapiens, UniProt P06276); assay: Inhibition of BchE (unknown origin)
HCT-116 = assay: Antiproliferative activity against human HCT-116 cells assessed reduction in cell growth incubated for 24 hrs by MTT assay; format: functional, cell-based; conditions: HCT-116, 24 h
[4] = Cytotoxicity against African green monkey Vero cells incubated for 48 hrs by SRB colorimetric assay; format: toxicity, cell-based, Chlorocebus sabaeus
MCF7 [5] = assay: Cytotoxicity against human MCF7 cells assessed as reduction in cell growth incubated for 24 hrs by MTT assay; format: functional, cell-based; conditions: MCF7, 24 h

Sequence of Telomerase reverse transcriptase (O14746 whole entry): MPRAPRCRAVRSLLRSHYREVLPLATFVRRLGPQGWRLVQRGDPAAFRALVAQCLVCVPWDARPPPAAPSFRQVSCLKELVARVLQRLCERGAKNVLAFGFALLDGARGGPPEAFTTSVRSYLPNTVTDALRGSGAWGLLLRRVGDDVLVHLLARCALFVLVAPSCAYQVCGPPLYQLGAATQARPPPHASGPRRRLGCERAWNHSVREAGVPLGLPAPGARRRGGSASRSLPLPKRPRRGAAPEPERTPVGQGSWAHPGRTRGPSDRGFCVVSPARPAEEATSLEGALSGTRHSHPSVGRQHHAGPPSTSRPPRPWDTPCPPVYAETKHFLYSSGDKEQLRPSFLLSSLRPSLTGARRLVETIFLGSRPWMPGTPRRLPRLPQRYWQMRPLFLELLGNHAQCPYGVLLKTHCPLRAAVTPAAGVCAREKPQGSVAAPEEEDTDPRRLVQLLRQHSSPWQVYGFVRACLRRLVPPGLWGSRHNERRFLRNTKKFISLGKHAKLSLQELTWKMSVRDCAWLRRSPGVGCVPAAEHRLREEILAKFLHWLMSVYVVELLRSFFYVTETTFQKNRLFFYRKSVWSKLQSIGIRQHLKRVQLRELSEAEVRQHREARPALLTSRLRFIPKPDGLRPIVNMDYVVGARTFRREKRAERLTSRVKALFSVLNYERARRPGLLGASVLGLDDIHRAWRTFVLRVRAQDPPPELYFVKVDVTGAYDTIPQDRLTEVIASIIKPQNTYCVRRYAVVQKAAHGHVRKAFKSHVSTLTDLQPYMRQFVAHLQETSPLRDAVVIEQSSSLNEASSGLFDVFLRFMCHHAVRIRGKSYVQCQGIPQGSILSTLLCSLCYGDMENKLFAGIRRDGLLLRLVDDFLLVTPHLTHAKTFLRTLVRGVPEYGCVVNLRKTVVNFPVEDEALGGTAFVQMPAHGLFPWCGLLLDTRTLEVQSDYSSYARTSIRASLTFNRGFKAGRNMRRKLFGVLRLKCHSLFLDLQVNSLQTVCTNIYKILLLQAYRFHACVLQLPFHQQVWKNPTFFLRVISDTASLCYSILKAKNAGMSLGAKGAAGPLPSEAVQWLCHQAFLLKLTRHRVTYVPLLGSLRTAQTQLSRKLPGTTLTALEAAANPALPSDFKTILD
Sequence of Amine oxidase [flavin-containing] B (P27338 whole entry): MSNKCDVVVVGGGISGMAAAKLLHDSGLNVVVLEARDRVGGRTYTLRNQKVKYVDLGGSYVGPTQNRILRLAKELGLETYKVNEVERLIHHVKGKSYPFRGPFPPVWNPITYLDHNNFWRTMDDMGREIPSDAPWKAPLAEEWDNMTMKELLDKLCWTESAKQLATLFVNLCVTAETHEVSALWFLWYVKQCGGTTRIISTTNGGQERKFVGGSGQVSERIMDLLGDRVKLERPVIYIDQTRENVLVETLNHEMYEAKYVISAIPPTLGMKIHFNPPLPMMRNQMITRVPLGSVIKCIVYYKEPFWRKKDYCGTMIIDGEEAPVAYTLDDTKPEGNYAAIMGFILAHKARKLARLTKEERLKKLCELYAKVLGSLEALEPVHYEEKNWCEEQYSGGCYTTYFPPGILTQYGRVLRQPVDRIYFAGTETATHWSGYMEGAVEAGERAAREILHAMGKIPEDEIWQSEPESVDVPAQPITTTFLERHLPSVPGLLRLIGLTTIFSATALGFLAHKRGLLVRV
Sequence of Histone deacetylase 3 (O15379 whole entry): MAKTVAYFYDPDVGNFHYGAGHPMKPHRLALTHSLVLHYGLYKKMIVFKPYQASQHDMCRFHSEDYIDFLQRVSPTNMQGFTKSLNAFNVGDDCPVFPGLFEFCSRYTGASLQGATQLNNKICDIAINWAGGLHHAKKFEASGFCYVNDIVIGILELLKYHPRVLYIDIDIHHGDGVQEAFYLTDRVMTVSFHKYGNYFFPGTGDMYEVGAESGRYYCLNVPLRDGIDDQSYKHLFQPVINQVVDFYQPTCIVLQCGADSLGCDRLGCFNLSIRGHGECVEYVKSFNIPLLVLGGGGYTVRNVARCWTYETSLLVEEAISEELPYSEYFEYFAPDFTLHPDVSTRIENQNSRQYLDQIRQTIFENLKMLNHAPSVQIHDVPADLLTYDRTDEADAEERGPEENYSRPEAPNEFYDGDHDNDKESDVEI
Sequence of Coagulation factor X (P00742 41-179 limits assumed): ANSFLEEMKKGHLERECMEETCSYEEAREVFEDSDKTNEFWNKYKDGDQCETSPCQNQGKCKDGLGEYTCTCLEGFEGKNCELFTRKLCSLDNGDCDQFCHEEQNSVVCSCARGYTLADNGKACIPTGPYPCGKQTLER
Sequence of Coagulation factor X (P00742 235-488 limits assumed): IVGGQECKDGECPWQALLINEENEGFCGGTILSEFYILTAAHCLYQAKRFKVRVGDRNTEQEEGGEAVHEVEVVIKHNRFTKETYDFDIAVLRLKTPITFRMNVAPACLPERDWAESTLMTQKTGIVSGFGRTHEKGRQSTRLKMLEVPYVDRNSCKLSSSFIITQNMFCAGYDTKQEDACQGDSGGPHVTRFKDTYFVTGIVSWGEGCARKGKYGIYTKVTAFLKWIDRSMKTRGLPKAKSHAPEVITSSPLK
Sequence of Cholinesterase (P06276 whole entry): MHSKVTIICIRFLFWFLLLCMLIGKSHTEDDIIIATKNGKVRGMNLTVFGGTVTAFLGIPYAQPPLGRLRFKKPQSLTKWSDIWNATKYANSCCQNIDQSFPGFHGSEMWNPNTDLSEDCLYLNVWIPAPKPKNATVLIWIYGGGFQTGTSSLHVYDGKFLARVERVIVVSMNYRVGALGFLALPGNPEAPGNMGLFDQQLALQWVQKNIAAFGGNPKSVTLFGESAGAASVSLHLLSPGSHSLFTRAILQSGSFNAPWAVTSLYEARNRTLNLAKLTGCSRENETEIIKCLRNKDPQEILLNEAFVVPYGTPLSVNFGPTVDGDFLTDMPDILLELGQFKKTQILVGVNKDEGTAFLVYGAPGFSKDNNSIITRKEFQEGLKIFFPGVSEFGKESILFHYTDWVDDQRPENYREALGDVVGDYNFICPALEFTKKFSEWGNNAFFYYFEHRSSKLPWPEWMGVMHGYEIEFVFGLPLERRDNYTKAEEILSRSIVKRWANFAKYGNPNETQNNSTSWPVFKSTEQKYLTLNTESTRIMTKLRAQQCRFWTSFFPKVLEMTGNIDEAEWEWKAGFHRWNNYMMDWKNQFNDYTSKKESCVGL
Sequence of Histone deacetylase 1 (Q13547 whole entry): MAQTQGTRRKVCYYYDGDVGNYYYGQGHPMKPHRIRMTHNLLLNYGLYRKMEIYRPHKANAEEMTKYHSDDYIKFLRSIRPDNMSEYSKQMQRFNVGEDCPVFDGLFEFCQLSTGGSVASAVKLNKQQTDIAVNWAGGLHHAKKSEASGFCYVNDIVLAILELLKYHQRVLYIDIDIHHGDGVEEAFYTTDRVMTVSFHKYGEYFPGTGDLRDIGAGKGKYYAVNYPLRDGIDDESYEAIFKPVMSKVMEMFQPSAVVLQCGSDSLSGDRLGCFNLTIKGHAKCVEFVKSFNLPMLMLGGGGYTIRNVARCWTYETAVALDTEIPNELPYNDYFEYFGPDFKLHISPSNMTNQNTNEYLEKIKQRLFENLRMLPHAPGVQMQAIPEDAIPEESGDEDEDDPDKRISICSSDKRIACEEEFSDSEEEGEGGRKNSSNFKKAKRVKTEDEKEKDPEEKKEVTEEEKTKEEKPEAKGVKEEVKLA
Sequence of Histone deacetylase 2 (Q92769 whole entry): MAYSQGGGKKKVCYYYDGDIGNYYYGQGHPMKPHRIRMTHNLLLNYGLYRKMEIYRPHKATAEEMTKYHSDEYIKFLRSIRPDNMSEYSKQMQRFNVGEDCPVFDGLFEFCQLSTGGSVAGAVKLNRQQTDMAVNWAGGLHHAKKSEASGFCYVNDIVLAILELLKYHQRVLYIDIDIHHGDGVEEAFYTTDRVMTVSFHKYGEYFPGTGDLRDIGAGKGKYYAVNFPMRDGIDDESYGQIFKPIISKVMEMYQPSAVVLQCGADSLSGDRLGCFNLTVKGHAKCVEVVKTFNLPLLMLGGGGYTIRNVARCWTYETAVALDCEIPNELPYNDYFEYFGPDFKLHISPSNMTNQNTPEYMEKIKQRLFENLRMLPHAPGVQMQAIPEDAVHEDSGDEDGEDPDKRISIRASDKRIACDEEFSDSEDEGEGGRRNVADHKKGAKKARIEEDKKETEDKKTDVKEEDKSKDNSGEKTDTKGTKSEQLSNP
Sequence of Acetylcholinesterase (P22303 whole entry): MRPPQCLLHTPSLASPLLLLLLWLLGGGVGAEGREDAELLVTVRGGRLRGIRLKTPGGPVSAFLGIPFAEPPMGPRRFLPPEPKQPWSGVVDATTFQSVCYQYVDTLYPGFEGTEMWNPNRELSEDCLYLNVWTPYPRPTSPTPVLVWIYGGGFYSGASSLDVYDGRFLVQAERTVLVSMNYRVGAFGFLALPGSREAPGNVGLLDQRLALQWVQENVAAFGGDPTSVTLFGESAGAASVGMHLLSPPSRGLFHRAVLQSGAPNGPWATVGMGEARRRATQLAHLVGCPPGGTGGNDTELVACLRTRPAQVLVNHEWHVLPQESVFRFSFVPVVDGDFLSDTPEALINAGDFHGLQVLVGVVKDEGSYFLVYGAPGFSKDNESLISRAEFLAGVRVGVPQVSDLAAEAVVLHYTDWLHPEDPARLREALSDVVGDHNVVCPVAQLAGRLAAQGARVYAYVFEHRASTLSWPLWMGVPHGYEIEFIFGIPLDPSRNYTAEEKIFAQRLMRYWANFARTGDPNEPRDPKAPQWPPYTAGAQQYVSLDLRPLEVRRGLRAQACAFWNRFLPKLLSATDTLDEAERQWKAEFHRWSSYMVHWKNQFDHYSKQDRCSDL

## O=C1c2cccc3c2c(cc2nccnc23)C(=O)N1CCNCCCNCCN1C(=O)c2cccc3c2c(cc2nccnc23)C1=O
HT-29
  IC50: 20 nM
HeLa
  IC50: 200 nM
PC-3
  IC50: 530 nM

## C[C@H]1[C@H](C)CC[C@]2(C)CC[C@]3(C)C(=CC(=O)[C@@H]4[C@@]5(C)Cc6nccnc6[C@](C)(C(=O)OCc6ccccc6)[C@@H]5CC[C@]43C)[C@H]12
FaDu
  IC50: > 30000 nM
HT-29
  IC50: 12200 nM
A-375
  IC50: 2100 nM
A2780
  IC50: 13700 nM

## O=C1CN(S(=O)(=O)c2ccc3cc(Cl)ccc3c2)CC2(CO)NC3(CCN(c4ccncc4)CC3)CN12 (stereo unspecified)
Coagulation factor X
  IC50: 0.61 nM

## COc1nccc2c1N1C(=O)c3cc4ccccc4n3C(=O)C1C2 (stereo unspecified)
MCF7 [1]
  Activity: 50.9%

## O=C1c2cc3ccccc3n2C(=O)C2Cc3ccncc3N12 (stereo unspecified)
MCF7 [1]
  Activity: 50.6%

## O=c1c2cc(-c3ccc(Cl)cc3)nn2cc(-c2ccccc2)n1CCN1CCOCC1
A549
  IC50: 24200 nM
H322
  IC50: 34700 nM

## Brc1ccc(CSc2nnc(-c3cnccn3)s2)cc1
HepG2
  IC50: 780 nM
[2]
  IC50: 1240 nM

## CC1c2nccnc2C[C@]2(C)[C@H]3C(=O)C=C4[C@@H]5[C@@H](C)[C@H](C)CC[C@]5(C)CC[C@@]4(C)[C@]3(C)CC[C@@H]12 (stereo partly specified)
FaDu
  IC50: > 30000 nM
HT-29
  IC50: 22700 nM
A-375
  IC50: 12000 nM
A2780
  IC50: 15700 nM

## Cn1cc(CCN2CCN(c3cnc(C(=O)Nc4cc(-c5cccs5)ccc4[N+](=O)[O-])cn3)CC2)c2ccccc21
Histone deacetylase 1
  IC50: 260 nM
Histone deacetylase 2
  IC50: 2470 nM
Histone deacetylase 3
  IC50: 1000 nM

## O=C(Nc1ccc2c(ccn2Cc2cccc(F)c2)c1)c1cnccn1
[3]
  IC50: 780 nM

## Fc1ccc(CSc2nnc(-c3cnccn3)n2-c2ccccc2)cc1
[2]
  IC50: 15000 nM
SW 1116
  IC50: 4120 nM

## Cc1cnc(COC(=O)c2ccccc2)cn1
Rhizoctonia solani
  EC50: 0.021 µg/mL (≈ 0.092 µM)

## Cc1cccc(-c2cnc3cccnc3n2)c1
Acetylcholinesterase
  IC50: 890 nM
Cholinesterase
  IC50: 500 nM

## C[C@@H]1[C@]2(O[C@H]3C=C4[C@@H]5CC[C@H]6Cc7nc8c(nc7C[C@]6(C)[C@H]5C[C@@H](O)[C@]4(C)[C@]31O)C[C@@H]1CC[C@H]3C4=CC5O[C@@]6(CCC(C)(C)O6)[C@@H](C)[C@@H]5[C@@]4(C)[C@H](O)C[C@@H]3[C@@]1(C)C8)O[C@@](C)(COC(=O)CNC(=O)Cc1cc(=O)oc3cc(N(C)C)ccc13)C[C@H]2O (stereo partly specified)
HCT-116
  IC50: 79 nM

## COC(=O)c1sc2nccnc2c1Nc1ccccc1OC
[4]
  IC50 at 48 h: 21300 nM

## CN(C)CCNc1ccc2c3c(cccc13)-c1nc(C#N)c(C#N)nc1-2
MCF7 [5]
  IC50: 4600 nM

## O=C(OCc1cnccn1)c1ccccc1
Rhizoctonia solani
  EC50: 0.02 µg/mL (≈ 0.0934 µM)
